Test results from US10435399B2, “HDAC6 inhibitory heterocyclic compound” (TAKEDA PHARMACEUTICAL COMPANY LIMITED, priority 2017, dated 2019).

molecular target: T1, HDAC6 enzyme (Homo sapiens, UniProt Q9UBN7); test: HDAC6 enzyme inhibitory activity (HDAC-Glo I/II Assay kit); format: biochemical; details: 10 μM; wells without enzyme = 100% inhibition
T1 construct: transducing full length HDAC6 gene into Sf-9 insect cells; GST; purchased SignalChem; host or cells: Sf-9 insect cells
T1 sequence (Q9UBN7 1-1215): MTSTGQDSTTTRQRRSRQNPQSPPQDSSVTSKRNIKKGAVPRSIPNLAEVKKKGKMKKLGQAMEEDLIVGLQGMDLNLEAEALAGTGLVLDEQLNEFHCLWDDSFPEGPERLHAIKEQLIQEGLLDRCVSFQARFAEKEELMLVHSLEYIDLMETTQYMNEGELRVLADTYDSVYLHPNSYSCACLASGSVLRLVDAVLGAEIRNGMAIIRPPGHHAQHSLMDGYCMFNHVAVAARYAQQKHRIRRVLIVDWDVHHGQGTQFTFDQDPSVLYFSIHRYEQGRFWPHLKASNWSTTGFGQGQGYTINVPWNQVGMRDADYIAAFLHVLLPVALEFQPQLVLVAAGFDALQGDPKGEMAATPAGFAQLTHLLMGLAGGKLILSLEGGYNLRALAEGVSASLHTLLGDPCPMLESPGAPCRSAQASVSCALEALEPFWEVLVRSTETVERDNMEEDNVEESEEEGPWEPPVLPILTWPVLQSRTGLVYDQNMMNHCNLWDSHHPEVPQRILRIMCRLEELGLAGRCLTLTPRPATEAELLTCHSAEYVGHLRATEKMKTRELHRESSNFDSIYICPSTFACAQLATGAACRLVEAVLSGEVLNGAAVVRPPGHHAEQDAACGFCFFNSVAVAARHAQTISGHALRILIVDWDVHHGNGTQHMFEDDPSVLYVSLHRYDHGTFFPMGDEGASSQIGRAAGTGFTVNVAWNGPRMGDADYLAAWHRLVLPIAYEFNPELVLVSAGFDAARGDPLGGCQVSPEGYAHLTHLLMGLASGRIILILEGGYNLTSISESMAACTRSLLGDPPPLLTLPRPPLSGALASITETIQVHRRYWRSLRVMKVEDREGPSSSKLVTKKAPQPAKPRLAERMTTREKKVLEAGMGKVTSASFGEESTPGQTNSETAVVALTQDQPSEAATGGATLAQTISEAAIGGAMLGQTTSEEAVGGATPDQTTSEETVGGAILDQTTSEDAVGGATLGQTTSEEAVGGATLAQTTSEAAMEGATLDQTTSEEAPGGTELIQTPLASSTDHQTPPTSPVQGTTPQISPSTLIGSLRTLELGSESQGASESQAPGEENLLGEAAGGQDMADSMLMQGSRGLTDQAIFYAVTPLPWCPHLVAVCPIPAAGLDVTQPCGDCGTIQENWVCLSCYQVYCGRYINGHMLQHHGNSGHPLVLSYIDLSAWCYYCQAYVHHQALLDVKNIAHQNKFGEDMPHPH
How it was run: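 Test compound is preincubated 60 min at RT with full-length insect-cell HDAC6 in Tris-HCl pH 7.5 with 135 mM NaCl and 1 mM MgCl2. A 20 min room-temperature HDAC-Glo reaction follows, with luminescent read-out.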

HDAC6 inhibitory rate (%) (10 μM), 99%:
O=C1c2cc(-c3nnc(C(F)F)o3)ccc2CN1N1CCC(F)(F)CC1c1ccc(F)cn1 (stereo not drawn) [Example 610, 2-(4,4-Difluoro-2-(5-fluoropyridin-2-yl)piperidin-1-yl)-6-(5-(difluoromethyl)-1,3,4-oxadiazol-2-yl)isoindolin-1-one (Optical Isomer)]
O=C1c2cc(-c3nnc(C(F)F)o3)ccc2CN1N1CCC(F)(F)CC1c1ccc(F)cn1 (stereo not drawn) [Example 612, 2-(4,4-Difluoro-2-(5-fluoropyridin-2-yl)piperidin-1-yl)-6-(5-(difluoromethyl)-1,3,4-oxadiazol-2-yl)isoindolin-1-one (Optical Isomer)]
Cc1ccc(C2CC(F)(F)CCN2N2Cc3ccc(-c4nnc(C(F)F)o4)cc3C2=O)nc1 (stereo not drawn) [Example 614, 6-(5-(difluoromethyl)-1,3,4-oxadiazol-2-yl)-2-(4,4-difluoro-2-(5-methylpyridin-2-yl)piperidin-1-yl)isoindolin-1-one (optical isomer)]
Cc1ccc(C2CC(F)(F)CCN2N2Cc3ccc(-c4nnc(C(F)F)o4)cc3C2=O)nc1 (stereo not drawn) [Example 615, 6-(5-(difluoromethyl)-1,3,4-oxadiazol-2-yl)-2-(4,4-difluoro-2-(5-methylpyridin-2-yl)piperidin-1-yl)isoindolin-1-one (optical isomer)]

same assay, conditions: 10 μM; wells without enzyme = 100% inhibition; read-out: HDAC6 inhibitory rate (%) (10 μM)

Inhibition at 10 µM, 101%:
O=C1c2cc(-c3nnc(C(F)F)o3)ccc2CN1N1CCCCC1c1cncc(F)c1 (stereo not shown) [Example 602, 6-(5-(difluoromethyl)-1,3,4-oxadiazol-2-yl)-2-(2-(5-fluoropyridin-3-yl)piperidin-1-yl)isoindolin-1-one]
CC(=O)N1CCC(C2CCCCN2N2Cc3ccc(-c4nnc(C(F)F)o4)cc3C2=O)CC1 (stereo not shown) [Example 611, 2-(1′-acetyl-2,4′-bipiperidin-1-yl)-6-(5-(difluoromethyl)-1,3,4-oxadiazol-2-yl)isoindolin-1-one]
O=C1c2cc(-c3nnc(C(F)F)o3)ccc2CN1[C@@H]1CCCC(F)(F)[C@@H]1NC(=O)C(F)(F)C(F)(F)F [Example 625, N-((1R,6R)-6-(6-(5-(difluoromethyl)-1,3,4-oxadiazol-2-yl)-1-oxo-1,3-dihydro-2H-isoindol-2-yl)-2,2-difluorocyclohexyl)-2,2,3,3,3-pentafluoropropanamide]

Inhibition at 10 µM, 88%:
N[C@@H]1[C@H](N2Cc3ccc(-c4nnc(C(F)F)o4)cc3C2=O)CCCC1(F)F [Example 621, 2-((1R,2R)-2-amino-3,3-difluorocyclohexyl)-6-(5-(difluoromethyl)-1,3,4-oxadiazol-2-yl)isoindolin-1-one]

Inhibition at 10 µM, 98%:
O=C(OCc1ccccc1)C1CC(F)(F)CCN1N1Cc2ccc(-c3nnc(C(F)F)o3)cc2C1=O (stereo not shown) [Example 604, benzyl 1-(6-(5-(difluoromethyl)-1,3,4-oxadiazol-2-yl)-1-oxo-1,3-dihydro-2H-isoindol-2-yl)-4,4-difluoropiperidine-2-carboxylate]

Inhibition at 10 µM, 100%:
O=C1c2cc(-c3nnc(C(F)F)o3)ccc2CN1N1CCCCC1c1cccc(F)c1 (stereo not shown) [Example 603, 6-(5-(difluoromethyl)-1,3,4-oxadiazol-2-yl)-2-(2-(3-fluorophenyl)piperidin-1-yl)isoindolin-1-one]
O=C1c2cc(-c3nnc(C(F)F)o3)ccc2CN1N1CCOCC1c1ccc(F)cc1 (stereo not shown) [Example 617, 6-(5-(difluoromethyl)-1,3,4-oxadiazol-2-yl)-2-(3-(4-fluorophenyl)morpholin-4-yl)isoindolin-1-one]
O=C(N[C@@H]1[C@H](N2Cc3ccc(-c4nnc(C(F)F)o4)cc3C2=O)CCCC1(F)F)OCc1ccccc1 [Example 619, benzyl ((1R,6R)-6-(6-(5-(difluoromethyl)-1,3,4-oxadiazol-2-yl)-1-oxo-1,3-dihydro-2H-isoindol-2-yl)-2,2-difluorocyclohexyl)carbamate]
O=C(NCC(F)(F)C(F)(F)F)C1CC(F)(F)CCN1N1Cc2ccc(-c3nnc(C(F)F)o3)cc2C1=O (stereo not shown) [Example 622, 1-(6-(5-(difluoromethyl)-1,3,4-oxadiazol-2-yl)-1-oxo-1,3-dihydro-2H-isoindol-2-yl)-4,4-difluoro-N-(2,2,3,3,3-pentafluoropropyl)piperidine-2-carboxamide]
O=C(NCC(F)F)C1CC(F)(F)CCN1N1Cc2ccc(-c3nnc(C(F)F)o3)cc2C1=O (stereo not shown) [Example 623, N-(2,2-difluoroethyl)-1-(6-(5-(difluoromethyl)-1,3,4-oxadiazol-2-yl)-1-oxo-1,3-dihydro-2H-isoindol-2-yl)-4,4-difluoropiperidine-2-carboxamide]

Inhibition at 10 µM, 99%:
O=C1c2cc(-c3nnc(C(F)F)o3)cnc2CN1[C@@H]1CCCC(F)(F)[C@H]1NC(=O)C(F)(F)C(F)F [Example 601, N-((1S,6R)-6-(3-(5-(difluoromethyl)-1,3,4-oxadiazol-2-yl)-5-oxo-5,7-dihydro-6H-pyrrolo[3,4-b]pyridin-6-yl)-2,2-difluorocyclohexyl)-2,2,3,3-tetrafluoropropanamide]
CC(C)(C(=O)N[C@H]1[C@H](N2Cc3ncc(-c4nnc(C(F)F)o4)cc3C2=O)CCCC1(F)F)C(F)(F)F [Example 605, N-((1S,6R)-6-(3-(5-(difluoromethyl)-1,3,4-oxadiazol-2-yl)-5-oxo-5,7-dihydro-6H-pyrrolo[3,4-b]pyridin-6-yl)-2,2-difluorocyclohexyl)-3,3,3-trifluoro-2,2-dimethylpropanamide]
O=C1c2cc(-c3nnc(C(F)F)o3)cnc2CN1C1CCCC(F)(F)[C@H]1NC(=O)C1(C(F)(F)F)CC1 (stereo partly shown) [Example 606]
CC(C)(CF)OC(=O)N[C@H]1[C@H](N2Cc3ncc(-c4nnc(C(F)F)o4)cc3C2=O)CCCC1(F)F [Example 607, 1-fluoro-2-methylpropan-2-yl ((1S,6R)-6-(3-(5-(difluoromethyl)-1,3,4-oxadiazol-2-yl)-5-oxo-5,7-dihydro-6H-pyrrolo[3,4-b]pyridin-6-yl)2,2-difluorocyclohexyl)carbamate]
CC(C)(OC(=O)N[C@H]1[C@H](N2Cc3ncc(-c4nnc(C(F)F)o4)cc3C2=O)CCCC1(F)F)C(F)F [Example 608, 1,1-difluoro-2-methylpropan-2-yl ((1S,6R)-6-(3-(5-(difluoromethyl)-1,3,4-oxadiazol-2-yl)-5-oxo-5,7-dihydro-6H-pyrrolo[3,4-b]pyridin-6-yl)-2,2-difluorocyclohexyl)carbamate]
Cn1cc(C2CCCCN2N2Cc3ccc(-c4nnc(C(F)F)o4)cc3C2=O)cn1 (stereo not shown) [Example 609, 6-(5-(difluoromethyl)-1,3,4-oxadiazol-2-yl)-2-(2-(1-methyl-1H-pyrazol-4-yl)piperidin-1-yl)isoindolin-1-one]
O=C(N[C@H]1[C@H](N2Cc3ncc(-c4nnc(C(F)F)o4)cc3C2=O)CCCC1(F)F)C(C(F)(F)F)C(F)(F)F [Example 613, N-((1S,6R)-6-(3-(5-(difluoromethyl)-1,3,4-oxadiazol-2-yl)-5-oxo-5,7-dihydro-6H-pyrrolo[3,4-b]pyridin-6-yl)-2,2-difluorocyclohexyl)-3,3,3-trifluoro-2-(trifluoromethyl)propanamide]

Inhibition at 10 µM, 89%:
O=C1c2cc(-c3nnc(C(F)F)o3)ccc2CN1c1cccn2ccnc12 [Example 616, 6-(5-(difluoromethyl)-1,3,4-oxadiazol-2-yl)-2-(imidazo[1,2-a]pyridin-8-yl)isoindolin-1-one]
